Target: LRRK2 G2019S enzyme (Homo sapiens (Human), UniProt Q5S007, G2019S)
Assay: LRRK2 G2019S TR-FRET biochemical kinase assay (LRRKtide substrate)
Settings: 5 nM LRRK2, 134 μM ATP, 60 minute reaction, 23° C.
How it was run: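 5 nM LRRK2 G2019S preincubated 20 min with LRRKtide and compound (3.162-fold dilution series) in Tris pH 7.5, MgCl2, EGTA, Brij-35, DTT, then reacted 60 min at 23 °C with 134 μM ATP. EDTA-stopped; pLRRKtide antibody detection, TR-FRET read at 340 nm excitation, 520/490–495 nm emission.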

Sequence of LRRK2 G2019S enzyme (Q5S007 whole entry G2019S): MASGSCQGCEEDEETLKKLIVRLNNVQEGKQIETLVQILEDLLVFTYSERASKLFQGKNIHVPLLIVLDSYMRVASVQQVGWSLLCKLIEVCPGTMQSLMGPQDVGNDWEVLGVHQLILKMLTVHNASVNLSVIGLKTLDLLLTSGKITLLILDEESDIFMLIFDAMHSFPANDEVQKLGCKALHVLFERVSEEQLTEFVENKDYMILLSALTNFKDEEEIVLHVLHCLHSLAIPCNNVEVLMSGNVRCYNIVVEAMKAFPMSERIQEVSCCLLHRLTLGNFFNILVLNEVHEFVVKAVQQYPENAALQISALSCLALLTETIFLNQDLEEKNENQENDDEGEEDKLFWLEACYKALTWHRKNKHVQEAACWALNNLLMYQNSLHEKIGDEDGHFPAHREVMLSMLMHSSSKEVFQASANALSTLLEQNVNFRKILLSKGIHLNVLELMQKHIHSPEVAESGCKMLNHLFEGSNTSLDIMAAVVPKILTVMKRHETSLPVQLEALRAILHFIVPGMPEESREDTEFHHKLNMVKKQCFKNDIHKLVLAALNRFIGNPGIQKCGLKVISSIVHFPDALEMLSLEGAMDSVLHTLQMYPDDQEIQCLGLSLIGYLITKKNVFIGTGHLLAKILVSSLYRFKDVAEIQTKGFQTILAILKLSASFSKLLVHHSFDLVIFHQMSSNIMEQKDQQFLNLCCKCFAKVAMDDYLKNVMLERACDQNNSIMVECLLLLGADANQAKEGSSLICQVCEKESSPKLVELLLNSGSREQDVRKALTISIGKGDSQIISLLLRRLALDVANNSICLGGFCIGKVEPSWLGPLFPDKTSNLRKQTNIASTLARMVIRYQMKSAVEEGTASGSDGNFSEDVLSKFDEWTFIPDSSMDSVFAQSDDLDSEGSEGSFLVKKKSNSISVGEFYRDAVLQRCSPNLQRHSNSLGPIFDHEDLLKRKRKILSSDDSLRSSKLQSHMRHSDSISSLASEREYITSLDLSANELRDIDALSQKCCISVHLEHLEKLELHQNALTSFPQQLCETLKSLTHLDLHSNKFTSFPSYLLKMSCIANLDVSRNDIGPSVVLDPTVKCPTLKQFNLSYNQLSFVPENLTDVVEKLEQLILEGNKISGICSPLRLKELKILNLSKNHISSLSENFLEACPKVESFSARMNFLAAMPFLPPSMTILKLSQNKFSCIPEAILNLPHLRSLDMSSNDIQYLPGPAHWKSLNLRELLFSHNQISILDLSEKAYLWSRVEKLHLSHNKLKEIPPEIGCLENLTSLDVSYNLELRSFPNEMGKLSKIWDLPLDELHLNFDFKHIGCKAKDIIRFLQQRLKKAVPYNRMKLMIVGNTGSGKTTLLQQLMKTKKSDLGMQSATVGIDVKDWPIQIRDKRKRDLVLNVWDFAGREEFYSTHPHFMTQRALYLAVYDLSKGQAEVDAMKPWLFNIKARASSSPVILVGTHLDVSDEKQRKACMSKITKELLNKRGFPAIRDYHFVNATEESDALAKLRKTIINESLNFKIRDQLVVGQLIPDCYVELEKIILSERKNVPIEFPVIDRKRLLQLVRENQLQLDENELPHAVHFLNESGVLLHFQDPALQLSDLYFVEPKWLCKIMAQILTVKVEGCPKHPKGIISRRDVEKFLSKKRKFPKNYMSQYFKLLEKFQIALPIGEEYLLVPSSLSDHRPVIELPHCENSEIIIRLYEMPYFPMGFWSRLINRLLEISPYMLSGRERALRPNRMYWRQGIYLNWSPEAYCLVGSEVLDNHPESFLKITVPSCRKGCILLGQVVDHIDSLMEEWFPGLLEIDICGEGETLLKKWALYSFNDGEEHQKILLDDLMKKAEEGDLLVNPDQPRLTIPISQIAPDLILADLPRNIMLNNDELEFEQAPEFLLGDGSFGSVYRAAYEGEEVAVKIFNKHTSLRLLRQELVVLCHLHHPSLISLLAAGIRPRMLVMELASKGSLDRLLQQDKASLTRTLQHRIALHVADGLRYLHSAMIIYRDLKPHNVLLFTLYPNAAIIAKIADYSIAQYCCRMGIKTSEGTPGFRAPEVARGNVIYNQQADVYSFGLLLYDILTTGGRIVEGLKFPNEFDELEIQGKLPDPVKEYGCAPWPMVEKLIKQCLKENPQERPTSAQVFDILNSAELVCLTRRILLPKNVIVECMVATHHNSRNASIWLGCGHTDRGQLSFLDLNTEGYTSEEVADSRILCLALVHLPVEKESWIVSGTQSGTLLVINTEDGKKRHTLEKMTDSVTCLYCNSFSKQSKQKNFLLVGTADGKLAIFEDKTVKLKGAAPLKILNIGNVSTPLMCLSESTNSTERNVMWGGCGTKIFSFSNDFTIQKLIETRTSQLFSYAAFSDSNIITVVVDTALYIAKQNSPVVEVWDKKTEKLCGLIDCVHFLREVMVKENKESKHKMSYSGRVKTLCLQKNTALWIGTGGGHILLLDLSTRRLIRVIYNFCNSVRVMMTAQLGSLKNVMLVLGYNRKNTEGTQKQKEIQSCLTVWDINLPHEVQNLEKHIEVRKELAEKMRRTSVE

| Compound | IC50 (Table B-2) [nM] | IC50 (Table C-2) [nM] |
| --- | --- | --- |
| CCOc1nc(Nc2cn(C(C)(C)C#N)nc2C)nc2[nH]cc(Cl)c12 [Compound B-3, 2-[4-[[5-chloro-4-ethoxy-7H-pyrrolo[2,3-d]pyrimidin-2-yl]amino]-3-methyl-pyrazol-1-yl]-2-methyl-propanenitrile] | ≤ 1 | – |
| CNc1nc(Nc2cn(C)nc2C)nc2[nH]cc(Cl)c12 [Compound B-4, 5-chloro-N^2-(1,3-dimethyl-1H-pyrazol-4-yl)-N^4-methyl-7H-pyrrolo[2,3-d]pyrimidine-2,4-diamine] | 2 to 20 | – |
| COc1nc(Nc2cn(C(C)(C)C#N)nc2C)nc2[nH]cc(Cl)c12 [Compound B-5, 2-[4-[(5-chloro-4-methoxy-7H-pyrrolo[2,3-d]pyrimidin-2-yl)amino]-3-methyl-pyrazol-1-yl]-2-methyl-propanenitrile] | 1 to 2 | – |
| CNc1nc(Nc2cn(C(C)(C)C#N)nc2C)nc2[nH]cc(Cl)c12 [Compound B-6, 2-[4-[[5-Chloro-4-(methylamino)-7H-pyrrolo[2,3-d]pyrimidin-2-yl]amino]-3-methyl-pyrazol-1-yl]-2-methyl-propanenitrile] | ≤ 1 | – |
| COc1nc(Nc2cn(C(C)(C)C#N)nc2C)nc2[nH]cnc12 [Compound B-7, 2-(4-((6-methoxy-9H-purin-2-yl)amino)-3-methyl-1H-pyrazol-1-yl)-2-methylpropanenitrile] | 2 to 20 | – |
| COc1nc(Nc2cnn(C)c2C)nc2[nH]cc(Cl)c12 [Compound B-8, 5-chloro-N-(1,5-dimethylpyrazol-4-yl)-4-methoxy-7H-pyrrolo[2,3-d]pyrimidin-2-amine] | 1 to 2 | – |
| COc1nc(Nc2cn(C)nc2C)nc2[nH]cc(Cl)c12 [Compound B-9, 5-chloro-N-(1,3-dimethylpyrazol-4-yl)-4-methoxy-7H-pyrrolo[2,3-d]pyrimidin-2-amine] | 2 to 20 | – |
| CNc1nc(Nc2cn(C(C)(C)C#N)nc2C)nc2[nH]cc(F)c12 [Compound B-10, 2-(4-((5-fluoro-4-(methylamino)-7H-pyrrolo[2,3-d]pyrimidin-2-yl)amino)-3-methyl-1H-pyrazol-1-yl)-2-methylpropanenitrile] | 1 to 2 | – |
| COc1nc(Nc2cn(C(C)(C)C#N)nc2C)nc2[nH]cc(F)c12 [Compound B-11, 2-[4-[(5-fluoro-4-methoxy-7H-pyrrolo[2,3-d]pyrimidin-2-yl)amino]-3-methyl-pyrazol-1-yl]-2-methyl-propanenitrile] | 1 to 2 | – |
| CCOc1nc(Nc2cn(C(C)(C)C#N)nc2C)nc2[nH]cnc12 [Compound B-12, 2-[4-[(6-ethoxy-9H-purin-2-yl)amino]-3-methyl-pyrazol-1-yl]-2-methyl-propanenitrile] | 2 to 20 | – |
| COc1nc(Nc2cn(C(C)(C)C#N)nc2C)nc2[nH]cc(C3CC3)c12 [Compound B-13, 2-[4-[(5-cyclopropyl-4-methoxy-7H-pyrrolo[2,3-d]pyrimidin-2-yl)amino]-3-methyl-pyrazol-1-yl]-2-methyl-propanenitrile] | 2 to 20 | – |
| COc1nc(Nc2cn(C(C)(C)C#N)nc2C)nc2[nH]cc(C(F)(F)F)c12 [Compound B-14, 2-(4-((4-methoxy-5-(trifluoromethyl)-7H-pyrrolo[2,3-d]pyrimidin-2-yl)amino)-3-methyl-1H-pyrazol-1-yl)-2-methylpropanenitrile] | 2 to 20 | – |
| Cc1nn(C(CF)CF)cc1Nc1nc(C2CC2)c2nc[nH]c2n1 [Compound C-1, 6-cyclopropyl-N-[1-[2-fluoro-1-(fluoromethyl)ethyl]-3-methyl-pyrazol-4-yl]-9H-purin-2-amine] | – | < 50 |
| Cc1c(Nc2nc(C3CC3)c3nc[nH]c3n2)cnn1C(CF)CF [Compound C-2, 6-cyclopropyl-N-(1-(1,3-difluoropropan-2-yl)-5-methyl-1H-pyrazol-4-yl)-9H-purin-2-amine] | – | < 50 |
| Cc1c(Nc2nc(C3CC3)c3nc[nH]c3n2)cnn1C(F)F [Compound C-4, 6-cyclopropyl-N-(1-(difluoromethyl)-5-methyl-1H-pyrazol-4-yl)-9H-purin-2-amine] | – | < 50 |
| Cc1c(Nc2nc(C3CC3)c3nc[nH]c3n2)cnn1C [Compound C-5, 6-cyclopropyl-N-(1,5-dimethylpyrazol-4-yl)-9H-purin-2-amine] | – | < 50 |
| Cc1nn(C)cc1Nc1nc(C2CC2)c2nc[nH]c2n1 [Compound C-6, 6-cyclopropyl-N-(1,3-dimethylpyrazol-4-yl)-9H-purin-2-amine] | – | < 50 |
| Cc1c(Nc2nc(C3CC3)c3nc[nH]c3n2)cnn1CC1CC1 [Compound C-7, 6-cyclopropyl-N-(1-(cyclopropylmethyl)-5-methyl-1H-pyrazol-4-yl)-9H-purin-2-amine] | – | < 50 |
| c1nc2c(C3CC3)nc(Nc3cnn4c3CC3(CC3)C4)nc2[nH]1 [Compound C-8, N-(6-cyclopropyl-9H-purin-2-yl)spiro[4,6-dihydropyrrolo[1,2-b]pyrazole-5,1 cyclopropane]-3-amine] | – | < 50 |
| Cc1nn(C(C)(C)C#N)cc1Nc1nc(C2CC2)c2nc[nH]c2n1 [Compound C-9, 2-(4-((6-cyclopropyl-9H-purin-2-yl)amino)-3-methyl-1H-pyrazol-1-yl)-2-methylpropanenitrile] | – | < 50 |
| Cc1nn(C(C)(C)C#N)cc1Nc1nc(C2CC2)c2c(C#N)c[nH]c2n1 [Compound C-10, 2-[[1-(1-cyano-1-methyl-ethyl)-3-methyl-pyrazol-4-yl]amino]-4-cyclopropyl-7H-pyrrolo[2,3-d]pyrimidine-5-carbonitrile] | – | < 50 |
| Cc1c(Nc2nc(C3CC3)c3c(C#N)c[nH]c3n2)cnn1C(CF)CF [Compound C-11, 4-cyclopropyl-2-[[1-[2-fluoro-1-(fluoromethyl)ethyl]-5-methyl-pyrazol-4-yl]amino]-7H-pyrrolo[2,3-d]pyrimidine-5-carbonitrile] | – | < 50 |
| Cc1nn(C(CF)CF)cc1Nc1nc(C2CC2)c2c(C#N)c[nH]c2n1 [Compound C-12, 4-cyclopropyl-2-[[1-[2-fluoro-1-(fluoromethyl)ethyl]-3-methyl-pyrazol-4-yl]amino]-7H-pyrrolo[2,3-d]pyrimidine-5-carbonitrile] | – | < 50 |
| N#Cc1c[nH]c2nc(Nc3cnn4c3CC3(CC3)C4)nc(C3CC3)c12 [Compound C-13, 4-cyclopropyl-2-(spiro[4,6-dihydropyrrolo[1,2-b]pyrazole-5,1′-cyclopropane]-3-ylamino)-7H-pyrrolo[2,3-d]pyrimidine-5-carbonitrile] | – | < 50 |

| Compound | IC50 (Table B-2) [nM] | IC50 (Table C-2) [nM] |
| --- | --- | --- |
| Cc1nn(C(C)(C)C#N)cc1Nc1nc(C2CC2)c2c(F)c[nH]c2n1 [Compound C-14, 2-[4-[(4-cyclopropyl-5-fluoro-7H-pyrrolo[2,3-d]pyrimidin-2-yl)amino]-3-methyl-pyrazol-1-yl]-2-methyl-propanenitrile] | – | < 50 |
| Cn1ccc(Nc2cc(C3CC3)c3nc[nH]c3n2)n1 [Compound C-17, 7-cyclopropyl-N-(1-methyl-1H-pyrazol-3-yl)-3H-imidazo[4,5-b]pyridin-5-amine] | – | > 100 |
| Cc1c(Nc2nc(C3CC3)c3c(C#N)c[nH]c3n2)cnn1C [Compound C-18, 4-cyclopropyl-2-[(1,5-dimethylpyrazol-4-yl)amino]-7H-pyrrolo[2,3-d]pyrimidine-5-carbonitrile] | – | < 50 |
| Cc1nn(C)cc1Nc1nc(C2CC2)c2c(C#N)c[nH]c2n1 [Compound C-19, 4-cyclopropyl-2-[(1,3-dimethylpyrazol-4-yl)amino]-7H-pyrrolo[2,3-d]pyrimidine-5-carbonitrile] | – | < 50 |
| Cc1cn(C)nc1Nc1cc(C2CC2)c2c(C#N)c[nH]c2n1 [Compound C-20, 4-cyclopropyl-6-((1,4-dimethyl-1H-pyrazol-3-yl)amino)-1H-pyrrolo[2,3-b]pyridine-3-carbonitrile] | – | < 50 |
| Cn1ccc(Nc2cc(C3CC3)c3c(C#N)c[nH]c3n2)n1 [Compound C-21, 4-cyclopropyl-6-((1-methyl-1H-pyrazol-3-yl)amino)-1H-pyrrolo[2,3-b]pyridine-3-carbonitrile] | – | < 50 |
| Cc1nn(C(C)(C)C#N)cc1Nc1nc(C2CC2)c2c(Cl)c[nH]c2n1 [Compound C-22] | – | < 50 |
| Cc1nn(C(C)(C)C#N)cc1Nc1nc(C2CC2)c2cc[nH]c2n1 [Compound C-23] | – | < 50 |
| Cc1nn(C)cc1Nc1nc(C2CC2)c2cc[nH]c2n1 [Compound C-24] | – | < 50 |
| Cc1c(Nc2nc(C3CC3)c3cc[nH]c3n2)cnn1C [Compound C-25] | – | < 50 |
| Cc1nn(C(C)(C)c2ncn(C)n2)cc1Nc1nc(C2CC2)c2c(C#N)c[nH]c2n1 [Compound C-26] | – | < 50 |
| Cc1nn(C(C)(C)c2ncn(C)n2)cc1Nc1nc(C2CC2)c2cc[nH]c2n1 [Compound C-27] | – | < 50 |
| Cc1nn(C(C)(C)c2ncn(C)n2)cc1Nc1nc(C2CC2)c2c(Cl)c[nH]c2n1 [Compound C-28] | – | < 50 |
| Cc1nn(C(C)(C)c2ncn(C)n2)cc1Nc1nc(C2CC2)c2c(F)c[nH]c2n1 [Compound C-29] | – | < 50 |
| Cc1nn(C(CF)CF)cc1Nc1nc(C2CC2)c2cc[nH]c2n1 [Compound C-30] | – | < 50 |
| Cc1c(Nc2nc(C3CC3)c3cc[nH]c3n2)cnn1C(CF)CF [Compound C-31] | – | < 50 |
| Cc1c(Nc2nc(C3CC3)c3c(Cl)c[nH]c3n2)cnn1C(CF)CF [Compound C-32] | – | < 50 |
| Cc1nc2c(C3CC3)nc(Nc3cnn(C)c3C)nc2[nH]1 [Compound C-33] | – | > 100 |
| Cc1nc2c(C3CC3)nc(Nc3cn(C)nc3C)nc2[nH]1 [Compound C-34] | – | > 100 |
| Cc1cn(C)nc1Nc1cc(C2CC2)c2nc[nH]c2n1 [Compound C-35] | – | > 100 |
| Cc1nn(C2(C)CC2)cc1Nc1nc(C2CC2)c2nc[nH]c2n1 [Compound C-36] | – | < 50 |
| Cc1nn(C(C)(C)c2ccn(C)n2)cc1Nc1nc(C2CC2)c2nc[nH]c2n1 [Compound C-37] | – | < 50 |
| Clc1c(Nc2nc(C3CC3)c3nc[nH]c3n2)cnn1CC1CC1 [Compound C-38] | – | < 50 |
